Laboratory results from patent US11560360B2, “Therapeutic compounds” (ARIZONA BOARD OF REGENTS ON BEHALF OF ARIZONA STATE …, priority 2016, dated 2023).

Key:
FRDA lymphocytes [1] = assay: Cytotoxicity assay in FRDA lymphocytes cultured in glucose free media (galactose), Live/Dead flow cytometry; type: cell-based
Description: Flow cytometric determination of cell viability by fluorescence labeling was used employing calcein acetoxy-methyl-ester and ethidium homodimer-1 as live and dead cell stains
Cytotoxicity was assessed by the dye exclusion method. Live cells have intact membranes, which exclude a variety of dyes that easily penetrate the damaged, permeable membranes of non-viable cells. Propidium iodide, a membrane impermeant dye, is generally excluded from viable cells, although it can enter non-viable cells and bind to double-stranded DNA by intercalating between base pairs. Compounds 1-5 were tested for their cytotoxicity in FRDA lymphocytes using FACS analysis with propidium iodide. The results are depicted in FIG. 2. From the results it is evident that cytotoxicity decreases with increasing lipophilicity in lower as well as higher concentrations for compounds 1-5.
Evaluation of compounds 1-5 for their cytotoxicity and their ability to function within the mitochondrial respiratory chain was carried out by incubation of the prepared compounds for 24 or 48 h with FRDA lymphocytes. A nutrient-sensitized screening strategy has been used by culturing FRDA cells in galactose as the sole sugar source which forces mammalian cells to rely on mitochondrial oxidative phosphorylation (OXPHOS) to produce their ATP; they also become more sensitive to mitochondrial respiratory chain inhibitors than cells grown in glucose medium. Compounds 1-5 were tested for their cytotoxicity in FRDA lymphocytes using a simultaneous staining with a two-color fluorescence assay, the Live/Dead® Viability/Cytotoxicity Kit (Molecular Probes). This assay is used to measure two recognized parameters of cell viability, intracellular esterase activity and plasma integrity. The membrane-impermeant DNA dye ethidium homodimer-1 (EthD-1) was used to identify dead cells whose plasma membrane integrity was disrupted. The membrane-permeant dye calcein-AM was used to label live cells. It penetrates into the cells where it is metabolized by cytoplasmic esterases and becomes a fluorescent but membrane-impermeant probe which is retained in viable cells. One mL of FRDA lymphocyte cells (5×10^5 cells) was plated in a 24-well plate in glucose free media (galactose 25 mM), treated with the test compounds and incubated at 37° C. for 24 h or 48 h in a humidified atmosphere containing 5% CO2 in air. Cells were collected by centrifugation at 300×g for 3 min and washed with phosphate buffered saline. […] The samples were analyzed immediately by flow cytometry (C6 Accuri, BD Biosciences, San Jose, Calif.), using a 488 nm excitation laser and the and the FL1-H channel 530±15 nm emission filter and the FL2-H channel 585±15 nm. For each analysis 10,000 events were recorded and analyzed using C6 Accuri software (BD Biosciences).

[2] = test system: mitochondrial inner membrane potential in FRDA lymphocytes; assay: JC-1 mitochondrial membrane potential (Δψm) assay; type: cell-based, human; conditions: 16 h pre-treatment, JC-1, FACS (FIG. 4)
Description: In each analysis, 10000 events were recorded. Depolarization with carbonyl cyanide p-(trifluoromethoxy) phenylhydrazone (FCCP), was used to serve as a positive control.
The ability of 1-5 to maintain mitochondrial membrane potential (ΔΨm) compared to the parent compound MV was studied. ΔΨm was determined using the cationic fluorescent dye 5, 5′, 6, 6′-tetrachloro-1, 1′, 3, 3′-tetraethylbenzimidazolyl carbocyanine iodide (JC-1), which is a lipophilic cation that selectively accumulates in mitochondria due to the negative potential across the inner mitochondrial membrane. The dye exists as a monomer at low concentrations giving a green fluorescence. […] Therefore, mitochondrial depolarization is indicated by a decrease in red/green fluorescence ratio. […]
The ability of the test compounds to depolarize or maintains mitochondrial inner membrane potential (Δψm) was assessed using the JC-1 probe. […] JC-1 is a dual stain, which can identify high membrane potential through J-aggregates (red fluorescence) and low membrane potential through J-monomers (green fluorescence). […] Cells were resuspended in phosphate buffered saline supplemented with 20 mM glucose and were analyzed immediately by FACS (C6 Accuri, BD Biosciences, San Jose, Calif.), using a 488 nm excitation laser and the FL1-H channel 530±15 nm emission filter and the FL2-H channel 585±15 nm. […]

FRDA lymphocytes [3] = assay: Measurement of cellular ATP concentration (firefly luciferase); type: cell-based, human; conditions: glucose free media (25 mM galactose), relative to untreated control (FIG. 6)
Description: Results are expressed as percentage of total ATP relative to untreated control.
ATP levels in FRDA lymphocytes were measured using firefly luciferase. The cells were grown on glucose-free media supplemented with galactose for 24 h prior to the addition of the test compounds. Since cells grown in galactose rely mostly on oxidative phosphorylation (OX-PHOS) to produce their ATP, they become more sensitive to mitochondrial respiratory chain inhibitors than cells grown in glucose medium.
Measurement of Cellular ATP Concentration
Total ATP levels in FRDA lymphocytes with or without partially blocking complex I activity with rotenone (5 nM) were measured using firefly luciferase as a means to measure ATP level. The cells were grown on glucose-free media supplemented with galactose. Since cells grown in galactose rely mostly on oxidative phosphorylation (OXPHOS) to produce their ATP, they become more sensitive to mitochondria respiratory chain inhibitors than cells grown in glucose medium. Briefly, lymphocytes (2×10^5 cell/mL) were plated (1 mL) in 24-well plates, treated with the test compounds, and then incubated at 37° C. for 48 h in a humidified atmosphere containing 5% CO2 in air. FRDA lymphocytes with partial inhibition of complex I, cells were preincubated with test compounds for overnight before rotenone (5 nM) treatment for 24 h. Cells in each well were mixed and transferred (100 μL) to 96-well microtiter black-walled cell culture plates (Costar, Corning, N.Y.). The total intracellular ATP level was measured in a luminator (Clarity™ luminescence microplate reader) using an ATP Bioluminescence Assay Kit (ViaLight®-Plus ATP monitoring reagent kit, Lonza) following the manufacturer's protocol. The total ATP level was expressed as a percentage of untreated control. Data are reported as the mean of at least three independent experiments.

CN(C)c1ccc2nc3ccc(=[N+](C)C)cc-3sc2c1 [MB, Methylene blue, reference compound]
cytotoxicity (FRDA lymphocytes [1]; FRDA lymphocytes on galactose for 48 h (FIG. 2)): cytotoxic | cytotoxicity (FRDA lymphocytes [1]; FRDA lymphocytes, 0.5-2.5 μM concentrations): strong cytotoxicity | preservation of mitochondrial membrane potential (Δψm) [2]: significantly depolarized Δψm | cellular ATP levels (FRDA lymphocytes [3]): inhibited ATP production, especially at higher concentrations
